One assay deals with HCT116 WT cells. Put plainly: HCT116 WT (parent) cell line proliferation / cell viability (CellTiter-Glo, 6 days). Type of assay: cell-based. Particulars: Homo sapiens, HCT-116, 144 h, 6 days treatment. An outline of the steps: (§1)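 Viability read by CellTiter-Glo luminescence after 6 days of compound treatment of HCT116 WT and MTAP-null cells (RPMI 1640, 10% FBS). Dose series were 1:3 steps from 1 or 10 μM (8–9 points), or 1:2 steps from 10 or 50 μM (22 points). IC50 from 4-parameter logistic or fixed-slope sigmoidal fit.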
For orientation: In ATP-based viability assays light output follows the ATP content of the culture.

In the next assay the test system is HCT116 MTAP null cells. Put plainly: HCT116 MTAP null cell line proliferation / cell viability (CellTiter-Glo, 6 days). Type of assay: cell-based. Particulars: 144 h; HCT116 MTAP null cells, 6 days treatment, CellTiter-Glo cell viability; read-out: HCT-116 MTAP null IC50. An outline of the steps:
as §1

`Cc1nc2nc(N)c3cnn(C)c3c2cc1C(=O)N(C)[C@@H]1COc2cc(C(F)(F)F)ccc21` [Example 251, 4-amino-N,1,7-trimethyl-N-((3S)-6-(trifluoromethyl)-2,3-dihydro-1-benzofuran-3-yl)-1H-pyrazolo[4,3-c][1,8]-naphthyridine-8-carboxamide]: the IC50 – broadly, the point on the concentration scale where inhibition reaches its midpoint – in the assay on HCT116 WT cells came to 217 nM; in the assay on HCT116 MTAP null cells it was 7 nM.

For `Cc1nc2nc(N)c3cnn(C)c3c2cc1C(=O)N(C)[C@@H]1COc2cc(Cl)c(Cl)cc21` [Example 252, 4-amino-N-((3S)-5,6-dichloro-2,3-dihydro-1-benzofuran-3-yl)-N,1,7-trimethyl-1H-pyrazolo[4,3-c][1,8]naphthyr-idine-8-carboxamide], the 50% inhibitory concentration (IC50) turned out to be 234 nM in the assay with HCT116 WT cells and 19 nM in the assay with HCT116 MTAP null cells.

With `CN(C(=O)c1cc2c(cc1C(F)(F)F)nc(N)c1cnn(C)c12)[C@@H]1COc2cc(C(F)(F)F)ccc21` [Example 253, 4-amino-N,1-dimethyl-7-(trifluoromethyl)-N-((3S)-6-(trifluoromethyl)-2,3-dihydro-1-benzofuran-3-yl)-1H-pyrazolo[4,3-c]quinoline-8-carboxamide], the IC50 with HCT116 WT cells stood at 2100 nM; in the assay on HCT116 MTAP null cells it was 35 nM.

Turning to `CN(C(=O)c1cc(F)c2nc(N)c3cnn(C)c3c2c1)[C@@H]1COc2cc(C(F)(F)F)ccc21` [Example 254, 4-amino-6-fluoro-N,1-dimethyl-N-((3S)-6-(trifluoromethyl)-2,3-dihydro-1-benzofuran-3-yl)-1H-pyrazolo[4,3-c]quinoline-8-carboxamide], the IC50 with HCT116 WT cells came to 20200 nM; with HCT116 MTAP null cells, 308 nM.

Turning to `CN(C(=O)c1ccc2nc(N)c3c(cnn3C)c2c1)[C@@H]1COc2cc(S(F)(F)(F)(F)F)ccc21` [Example 255, 4-amino-N,3-dimethyl-N-((3S)-6-(pentafluoro-lambda~6~- sulfanyl)-2,3-dihydro-1-benzo-furan-3-yl)-3H-pyrazolo[3,4-c]quinoline-8-carboxamide], the IC50 is 2400 nM with HCT116 WT cells and 47 nM in the assay on HCT116 MTAP null cells.

Consider `CN(C(=O)c1cc2c(cn1)nc(N)c1c2cnn1C)[C@@H]1COc2cc(C(F)(F)F)ccc21` [Example 256, 4-amino-N,3-dimethyl-N-((3S)-6-(trifluoromethyl)-2,3-dihydro-1-benzofuran-3-yl)-3H-pyrazolo[3,4-c][1,7]naphthyr-idine-8-carboxamide], for which the IC50 in the assay with HCT116 WT cells was found to be 7500 nM; in the assay with HCT116 MTAP null cells, 143 nM.

Take `CN(C(=O)c1cc2c(cn1)nc(N)c1c2cnn1C)[C@@H]1COc2cc(S(F)(F)(F)(F)F)ccc21` [Example 257, 4-amino-N,3-dimethyl-N-((3S)-6-(pentafluoro-lambda~6~-sulfanyl)-2,3-dihydro-1-benzofuran-3-yl)-3H-pyrazolo[3,4-c][1,7]naph-thyridine-8-carboxamide]: the IC50 is 2020 nM in the assay with HCT116 WT cells and 59 nM in the assay on HCT116 MTAP null cells.

In the case of `CN(C(=O)c1cc2c(cc1F)nc(N)c1c2cnn1C)[C@@H]1COc2cc(C(F)(F)F)ccc21` [Example 258, 4-amino-7-fluoro-N,3-dimethyl-N-((3S)-6-(trifluoromethyl)-2,3-dihydro-1-benzofuran-3-yl)-3H-pyrazolo[3,4-c]quinoline-8-carboxamide], the half-inhibitory concentration (IC50) in the assay on HCT116 WT cells amounted to 4030 nM; in the assay on HCT116 MTAP null cells, 54 nM.

On to `CN(C(=O)c1cc2c(cc1F)nc(N)c1c2cnn1C)[C@@H]1COc2cc(OC(F)(F)F)ccc21` [Example 259, 4-amino-7-fluoro-N,3-dimethyl-N-((3S)-6-(trifluoromethoxy)-2,3-dihydro-1-benzofuran-3-yl)-3H-pyrazolo[3,4-c]quinoline-8-carboxamide], for which the IC50 with HCT116 WT cells was determined as 3240 nM; in the assay with HCT116 MTAP null cells, 62 nM.

Consider `CN(C(=O)c1cc2c(cc1F)nc(N)c1c2cnn1C)[C@@H]1COc2cc(-c3cnn(C(F)(F)F)c3)ccc21` [Example 260, 4-amino-7-fluoro-N,3-dimethyl-N-((3S)-6-(1-(trifluoromethyl)-1H-pyrazol-4-yl)-2,3-dihydro-1-benzofuran-3-yl)-3H-pyrazolo-[3,4-c]quinoline-8-carboxamide], for which the results for the concentration for half-maximal inhibition (IC50) in the assay with HCT116 WT cells and in the assay with HCT116 MTAP null cells were 10500 nM and 82 nM, respectively.

As to `CN(C(=O)c1ccc2nc(N)c3cn[nH]c3c2c1)[C@@H]1COc2cc(C(F)(F)F)ccc21` [Example 261, 4-amino-N-methyl-N-((3S)-6-(trifluoromethyl)-2,3-dihydro-1-benzofuran-3-yl)-1H-pyrazolo[4,3-c]quinoline-8-carboxamide], the 50% inhibitory concentration (IC50) in the assay with HCT116 WT cells was determined as 703 nM; in the assay on HCT116 MTAP null cells it was 15 nM.

Regarding `Cc1n[nH]c2c1c(N)nc1ccc(C(=O)N(C)[C@@H]3COc4cc(C(F)(F)F)ccc43)cc12` [Example 262, 4-amino-N,3-dimethyl-N-((3S)-6-(trifluoromethyl)-2,3-dihydro-1-benzofuran-3-yl)-1H-pyrazolo[4,3-c]quinoline-8-carboxamide], the half-inhibitory concentration (IC50) was 1950 nM with HCT116 WT cells and 65 nM in the assay on HCT116 MTAP null cells.

With `Cc1nn(C)c2c1c(N)nc1ccc(C(=O)N(C)[C@@H]3COc4cc(C(F)(F)F)ccc43)cc12` [Example 263, 4-amino-N,1,3-trimethyl-N-((3S)-6-(trifluoromethyl)-2,3-dihydro-1-benzofuran-3-yl)-1H-pyrazolo[4,3-c]quinoline-8-carboxamide], the results for the IC50 with HCT116 WT cells and with HCT116 MTAP null cells were 2010 nM and 58 nM, respectively.

Consider `Cc1n[nH]c2c1c(N)nc1cnc(C(=O)N(C)[C@@H]3COc4cc(C(F)(F)F)ccc43)cc12` [Example 264, 4-amino-N,3-dimethyl-N-((3S)-6-(trifluoromethyl)-2,3-dihydro-1-benzofuran-3-yl)-1H-pyrazolo[4,3-c][1,7]naph-thyridine-8-carboxamide], for which the concentration for half-maximal inhibition (IC50) in the assay with HCT116 WT cells came to 5110 nM; in the assay on HCT116 MTAP null cells, 70 nM.

`Cc1nn(C)c2c1c(N)nc1cnc(C(=O)N(C)[C@@H]3COc4cc(C(F)(F)F)ccc43)cc12` [Example 265, 4-amino-N,1,3-trimethyl-N-((3S)-6-(trifluoromethyl)-2,3-dihydro-1-benzofuran-3-yl)-1H-pyrazolo[4,3-c][1,7]-naphthyridine-8-carboxamide]: the IC50 is 3850 nM with HCT116 WT cells and 151 nM in the assay with HCT116 MTAP null cells.

Consider `Cc1nn(C)c2c1c(N)nc1cnc(C(=O)N(C)[C@@H]3COc4cc(S(F)(F)(F)(F)F)ccc43)cc12` [Example 266, 4-amino-N,1,3-trimethyl-N-((3S)-6-(pentafluoro-lambda~6~-sulfanyl)-2,3-dihydro-1-benzofuran-3-yl)-1H-pyrazolo[4,3-c][1,7]naph-thyridine-8-carboxamide], for which the IC50 was 2660 nM in the assay on HCT116 WT cells and 70 nM with HCT116 MTAP null cells.

With `Cc1nn(C)c2c1c(N)nc1cc(F)c(C(=O)N(C)[C@@H]3COc4cc(C(F)(F)F)ccc43)cc12` [Example 267, 4-amino-7-fluoro-N,1,3-trimethyl-N-((3S)-6-(trifluoro-methyl)-2,3-dihydro-1-benzo-furan-3-yl)-1H-pyrazolo[4,3-c]quinoline-8-carboxamide], the IC50 was 1980 nM in the assay on HCT116 WT cells and 36 nM in the assay with HCT116 MTAP null cells.

`Cc1nn(C)c2c1c(N)nc1cc(F)c(C(=O)N(C)[C@@H]3COc4cc(-c5cnn(C(F)(F)F)c5)ccc43)cc12` [Example 268]: the results for the IC50 with HCT116 WT cells and with HCT116 MTAP null cells were 8560 nM and 47 nM, respectively.

Take `COc1ccc2c(c1)COC[C@H]2N(C)C(=O)c1cc2c3c(c(N)nc2cn1)[C@@H](C)OC3` [Example 269, (3R)-4-amino-N-((4S)-7-methoxy-3,4-dihydro-1H-2-benzopyran-4-yl)-N,3-dimeth-yl-1,3-dihydrofuro[3,4-c][1,7]-naphthyridine-8-carboxamide]: the figures for the IC50 with HCT116 WT cells and in the assay with HCT116 MTAP null cells were 2930 nM and 39 nM, respectively.

On to `C[C@H]1OCc2c1c(N)nc1cnc(C(=O)N(C)[C@@H]3COCc4nc(C(F)(F)F)ccc43)cc21` [Example 270, (3R)-4-amino-N,3-dimethyl-N-((5S)-2-(trifluoromethyl)-5,8-dihydro-6H-pyrano[3,4-b]-pyridin-5-yl)-1,3-dihydrofuro-[3,4-c][1,7]naphthyridine-8-carboxamide], for which the IC50 in the assay with HCT116 WT cells turned out to be 740 nM; in the assay with HCT116 MTAP null cells, 17 nM.

`C[C@@H]1OCc2c1c(N)nc1cnc(C(=O)N(C)[C@@H]3COCc4nc(C(F)(F)F)ccc43)cc21` [Example 271, (3S)-4-amino-N,3-dimethyl-N-((5S)-2-(trifluoromethyl)-5,8-dihydro-6H-pyrano[3,4-b]-pyridin-5-yl)-1,3-dihydrofuro-[3,4-c][1,7]naphthyridine-8-carboxamide]: the half-inhibitory concentration (IC50) was 31400 nM in the assay with HCT116 WT cells and 956 nM with HCT116 MTAP null cells.

Consider `CN(C(=O)c1cc2c3c(c(N)nc2cc1Cl)COC3)[C@@H]1COCc2nc(C(F)(F)F)ccc21` [Example 274, 4-amino-7-chloro-N-methyl-N-((5S)-2-(trifluoromethyl)-5,8-dihydro-6H-pyrano[3,4-b]-pyridin-5-yl)-1,3-dihydrofuro-[3,4-c]quinoline-8-carboxamide], for which the IC50 with HCT116 WT cells came to 229 nM; with HCT116 MTAP null cells, 4 nM.

On to `CN(C(=O)c1cc2c3c(c(N)nc2nc1Cl)COC3)[C@@H]1COCc2cc(C#N)ccc21` [Example 275, 4-amino-7-chloro-N-((4S)-7-cyano-3,4-dihydro-1H-2-benzopyran-4-yl)-N-methyl-1,3-dihydrofuro[3,4-c][1,8]-naphthyridine-8-carboxamide], for which the IC50 in the assay on HCT116 WT cells was found to be 2670 nM; in the assay on HCT116 MTAP null cells, 83 nM.

Consider `CN(C(=O)c1cc2c3c(c(N)nc2nc1Cl)COC3)[C@@H]1COCc2cc(C(F)(F)F)ccc21` [Example 276, 4-amino-7-chloro-N-methyl-N-((4S)-7-(trifluoromethyl)-3,4-dihydro-1H-2-benzopyran-4-yl)-1,3-dihydrofuro[3,4-c][1,8]-naphthyridine-8-carboxamide], for which the IC50 in the assay with HCT116 WT cells stood at 417 nM; in the assay with HCT116 MTAP null cells it was 16 nM.
